Source: patent publication US20230330188A1, “PHARMACEUTICAL COMBINATION FOR USE IN THE TREATMENT AND/OR PREVENTION OF DIABETES” (INSPHERO AG, priority 2020, published 2023)

System: 3D InSight™ Human Islet Microtissues
Experiment: Glucose-stimulated insulin secretion (GSIS) after 13 days of glucolipotoxicity (GLTX) induced islet injury
Format: cell-based
Conditions: GSIS at 16.7 mM glucose, vs GLTX group

Row | Molecule | glucose-stimulated insulin secretion (GSIS) (FIG. 3, long-term (13 days) treatment with 10 μM verapamil alone in glucolipotox medium) | glucose-stimulated insulin secretion (GSIS) (FIG. 2, long-term (13 days) treatment with 1 μM semaglutide alone in glucolipotox medium)
1 | COc1ccc(CCN(C)CCCC(C#N)(c2ccc(OC)c(OC)c2)C(C)C)cc1OC (centres unmarked) [verapamil] | has a positive influence on GSIS | 
2 | semaglutide |  | does not improve the GSIS
